Laboratory results as given in US12630529B2, “GCN2 modulator compounds” (ALESTA THERAPEUTICS BV, priority 2020, dated 2026).

Assays:
GCN2 [1] = biological target: T1, GCN2 (Mus musculus, UniProt Q9QZ05); assay: GCN2 inhibition cell-based assay (P-GCN2 Western blot in Neuro 2a cells); conditions: amino acid deprived media (DMEM lacking L-cysteine and methionine), 3 hours
T1 construct: endogenous in cells; host or cells: Neuro 2a (N2a)
Procedure: Neuro 2a cells (N2a) were maintained at 37° C. and 5% CO2 in DMEM/F12 medium (Fisher Scientific) supplemented with 10% fetal bovine serum and 1% penicillin-streptomycin (complete medium). 300,000 cells/well were seeded in flat bottom 6 well plates 48 hours before treatment with the compounds.
Testing compounds were prepared at different concentrations ranging from 10 μM to 0.1 nM on DMEM medium lacking L-cysteine and methionine (DMEM-CM) (Gibco) and supplemented with 1% penicillin-streptomycin. Complete medium was used as control of non-stressed condition. After 48 hours, the medium was removed from each well and 2 mL per well of each treatment was added. Cells were treated for 3 hours at 37° C. and 5% CO2.
After the incubation time, each well was washed with sterile 1×PBS and then 100 μL of ice-cold lysis buffer supplemented with phosphatase and protease inhibitors was added. Lysates were transferred to 1.5 mL tubes and sonicated for 3 min, and total protein amounts were quantified using BCA assay (e.g., BCA Protein Assay Kit; Pierce) according to manufacturer instructions. Equal amount of proteins was loaded on SDS-PAGE gels for electrophoresis and then transferred onto 0.2 µm filter pore PVDF membranes.
Membranes were then blocked in blocking buffer containing 3% BSA/0.1% Tween/1×Tris-buffered saline (TBS) for 1 hour and then incubated overnight at 4° C. with agitation with anti-pGCN2 primary antibody (Abcam ab-75836), diluted 1:1,000 in blocking buffer. […] (Sigma Aldrich) was used as a loading control.
Membranes were then incubated with the corresponding secondary antibody to detect immune-reactive bands using enhanced chemiluminescence (e.g., ECL Western Blotting Substrate Pierce).
Images were acquired (e.g., using Chemidoc™ equipment) and quantitated by densitometry using ImageJ software. IC50 values were determined from a concentration-response curve using GraphPad prism software.
IC50 values from P-GCN2 inhibition assay after induction with amino acid deprived media in the presence of different concentrations of test compounds are shown in Table 2. For IC50 values: +++ refers to <10 nM of test compound; ++ refers to 10 nM to 100 nM of test compound; + refers to 100 nM to 1,000 nM of test compound and − refers to >1,000 nM of test compound.
Under GCN2-mediated stress conditions, resulting from an amino acid deprived medium, GCN2 is generally phosphorylated. Accordingly, inhibition of GCN2 phosphorylation as a result of the test compound indicates inhibition of the GCN2 pathway.

HT29 cells = assay: Growth of tumor spheroids; type: cell-based; conditions: 64 μM arginine, up to 120 hours, vs untreated spheroids
Procedure: The growth of tumor spheroids was evaluated following treatment of cells with Compound 1, Compound 2 and Compound 108. Briefly, HT29 cells were seeded at 5,000 cells/well in ultra-low attachment round bottom 96-well plates, in 100 μL SILAC DMEM Flex media without phenol red, supplemented with 10% fetal bovine serum (FBS), 1 g/L glucose, 2 mM glutamine, 220 μM lysine, and 64 μM arginine. The plates were centrifuged for 10 minutes at 125×g and put in a humidified incubator at 37° C. for 3 days before the onset of the experiment to allow spheroids to form.
Three days after seeding, 10 μM Compound 1, 10 μM Compound 2, 10 μM Compound 108 or 10 μM vehicle control (0.1% DMSO), were added together with 100 nM fluorescent apoptosis stain (e.g., YO-PRO™-1 Iodide; Thermo Fisher) to detect apoptotic cells and Nuclear-ID Red DNA Stain (1:100,000; ENZO Life Sciences) to detect live cells. Plates were placed in a live-cell imaging and analysis platform (e.g., IncuCyte ZOOM®; Essenbio) set up in a humidified incubator at 37° C. and scanned every 4 hours for up 120 hours, at 10× magnification, to determine relative spheroid size and cell death. Experiments were performed in quadruplicate and analyzed using live-cell imaging and analysis software (e.g., IncuCyte ZOOM® 2018A software; Essenbio).

CHOP (DDIT3) reporter = assay: GCN2-induction of CHOP and apoptosis in 3T3 fibroblasts with CHOP (DDIT3) reporter construct; type: cell-based, murine; conditions: for induction of CHOP (mCherry): murine 3T3 WT and GCN2 knockout CHOP reporter cells, stress inducer alone
Procedure: The CHOP construct comprised the […] (UTR) of mouse DDIT3 mRNA fused to a sequence encoding the fluorescent protein mCherry.
Cells were seeded at 5,000 cells per well in flat bottom 96-well plates in 100 μL DMEM low glucose media without phenol red, and supplemented with 10% FBS and 2 mM glutamine. After 24 hours, the exemplary compounds, and either tunicamycin, halofuginone, or histidinol, were added together with 100 nM of fluorescent apoptosis stain (YO-PRO™-1 Iodide; Thermo Fisher) to detect apoptotic cells. Cells were placed in a live-cell imaging and analysis platform (IncuCyte ZOOM®; Essenbio) set up in a humidified incubator at 37° C. and the plates were scanned every 4 hours for up 120 hours, at 10× magnification, to determine cell confluence and cell death. Experiments were performed in duplicate with 3 images collected per well, and analyzed using live-cell imaging and analysis software (IncuCyte ZOOM® 2018A software; Essenbio).

GCN2 [2] = biological target: GCN2 (Homo sapiens, UniProt Q9P2K8); assay: GCN2 enzyme inhibition assay (Reaction Biology EIF2AK4/GCN2 kinase assay); type: biochemical; design: purchased Reaction Biology Corp; conditions: human GCN2 enzyme activity, 10 μM ATP, 20 μM peptide substrate
Procedure: In order to validate the above results, human GCN2 enzyme activity was measured in Reaction Biology Corp (EIF2AK4/GCN2 kinase assay). Compounds were tested in 5-dose IC50 mode for non-active compounds and 10-dose IC50 mode for active compounds with 3-fold serial dilution starting at 30 μM and 0.1 μM respectively. Control compound Staurosporine was tested in 10-dose IC50 mode with 4-fold serial dilution starting at 20 μM. Reactions were carried out at 10 μM ATP using 20 μM peptide substrate [GRSRSRSRSR]. For IC50 values: +++ refers to <10 nM of test compound; ++ refers to 10 nM to 100 nM of test compound; + refers to 100 nM to 1,000 nM of test compound and − refers to >1,000 nM of test compound.

Chain of GCN2 (Homo sapiens, UniProt Q9P2K8) (Q9P2K8 whole entry): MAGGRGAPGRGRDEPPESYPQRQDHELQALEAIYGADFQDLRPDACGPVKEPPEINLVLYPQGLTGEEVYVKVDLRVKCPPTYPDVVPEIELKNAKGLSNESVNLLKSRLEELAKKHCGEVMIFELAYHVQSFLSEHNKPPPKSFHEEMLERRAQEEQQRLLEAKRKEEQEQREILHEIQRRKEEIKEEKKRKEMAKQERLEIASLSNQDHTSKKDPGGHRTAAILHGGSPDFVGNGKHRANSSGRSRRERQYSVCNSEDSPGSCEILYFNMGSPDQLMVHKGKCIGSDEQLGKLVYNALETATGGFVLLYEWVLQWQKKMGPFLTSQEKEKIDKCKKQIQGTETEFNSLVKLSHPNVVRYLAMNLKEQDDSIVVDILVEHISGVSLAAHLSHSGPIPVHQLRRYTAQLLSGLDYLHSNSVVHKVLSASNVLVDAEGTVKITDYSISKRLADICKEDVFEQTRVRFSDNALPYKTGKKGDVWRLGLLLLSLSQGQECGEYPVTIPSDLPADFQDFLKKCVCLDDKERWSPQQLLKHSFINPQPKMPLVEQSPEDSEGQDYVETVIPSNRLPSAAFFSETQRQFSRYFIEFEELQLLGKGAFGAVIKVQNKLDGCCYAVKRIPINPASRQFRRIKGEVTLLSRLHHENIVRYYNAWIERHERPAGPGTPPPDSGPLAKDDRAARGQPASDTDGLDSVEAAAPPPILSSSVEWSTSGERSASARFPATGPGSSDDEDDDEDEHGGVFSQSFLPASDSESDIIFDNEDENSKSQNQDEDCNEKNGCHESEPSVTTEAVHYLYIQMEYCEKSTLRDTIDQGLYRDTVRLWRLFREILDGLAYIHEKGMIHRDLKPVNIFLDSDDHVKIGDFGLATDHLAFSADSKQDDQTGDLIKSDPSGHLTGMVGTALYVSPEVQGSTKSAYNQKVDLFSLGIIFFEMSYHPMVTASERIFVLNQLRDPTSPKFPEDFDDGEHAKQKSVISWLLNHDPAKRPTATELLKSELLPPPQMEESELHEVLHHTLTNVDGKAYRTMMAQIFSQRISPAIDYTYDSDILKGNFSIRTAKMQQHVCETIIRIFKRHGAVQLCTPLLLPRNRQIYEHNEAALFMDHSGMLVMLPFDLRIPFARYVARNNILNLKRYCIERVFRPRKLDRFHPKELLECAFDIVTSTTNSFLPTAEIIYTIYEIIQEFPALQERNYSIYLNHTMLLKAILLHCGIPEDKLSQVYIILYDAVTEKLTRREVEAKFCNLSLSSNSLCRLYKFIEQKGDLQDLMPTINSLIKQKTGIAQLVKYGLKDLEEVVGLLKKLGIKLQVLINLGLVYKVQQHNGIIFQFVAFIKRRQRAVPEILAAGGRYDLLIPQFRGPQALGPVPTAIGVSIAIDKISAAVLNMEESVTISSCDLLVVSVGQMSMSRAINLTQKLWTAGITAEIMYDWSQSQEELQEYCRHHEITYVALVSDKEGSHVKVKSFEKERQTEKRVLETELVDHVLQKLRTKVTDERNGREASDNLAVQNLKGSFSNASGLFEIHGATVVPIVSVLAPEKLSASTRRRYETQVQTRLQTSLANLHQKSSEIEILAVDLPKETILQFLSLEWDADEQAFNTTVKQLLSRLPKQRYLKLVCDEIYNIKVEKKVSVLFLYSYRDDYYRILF
T1 sequence (Q9QZ05 whole entry): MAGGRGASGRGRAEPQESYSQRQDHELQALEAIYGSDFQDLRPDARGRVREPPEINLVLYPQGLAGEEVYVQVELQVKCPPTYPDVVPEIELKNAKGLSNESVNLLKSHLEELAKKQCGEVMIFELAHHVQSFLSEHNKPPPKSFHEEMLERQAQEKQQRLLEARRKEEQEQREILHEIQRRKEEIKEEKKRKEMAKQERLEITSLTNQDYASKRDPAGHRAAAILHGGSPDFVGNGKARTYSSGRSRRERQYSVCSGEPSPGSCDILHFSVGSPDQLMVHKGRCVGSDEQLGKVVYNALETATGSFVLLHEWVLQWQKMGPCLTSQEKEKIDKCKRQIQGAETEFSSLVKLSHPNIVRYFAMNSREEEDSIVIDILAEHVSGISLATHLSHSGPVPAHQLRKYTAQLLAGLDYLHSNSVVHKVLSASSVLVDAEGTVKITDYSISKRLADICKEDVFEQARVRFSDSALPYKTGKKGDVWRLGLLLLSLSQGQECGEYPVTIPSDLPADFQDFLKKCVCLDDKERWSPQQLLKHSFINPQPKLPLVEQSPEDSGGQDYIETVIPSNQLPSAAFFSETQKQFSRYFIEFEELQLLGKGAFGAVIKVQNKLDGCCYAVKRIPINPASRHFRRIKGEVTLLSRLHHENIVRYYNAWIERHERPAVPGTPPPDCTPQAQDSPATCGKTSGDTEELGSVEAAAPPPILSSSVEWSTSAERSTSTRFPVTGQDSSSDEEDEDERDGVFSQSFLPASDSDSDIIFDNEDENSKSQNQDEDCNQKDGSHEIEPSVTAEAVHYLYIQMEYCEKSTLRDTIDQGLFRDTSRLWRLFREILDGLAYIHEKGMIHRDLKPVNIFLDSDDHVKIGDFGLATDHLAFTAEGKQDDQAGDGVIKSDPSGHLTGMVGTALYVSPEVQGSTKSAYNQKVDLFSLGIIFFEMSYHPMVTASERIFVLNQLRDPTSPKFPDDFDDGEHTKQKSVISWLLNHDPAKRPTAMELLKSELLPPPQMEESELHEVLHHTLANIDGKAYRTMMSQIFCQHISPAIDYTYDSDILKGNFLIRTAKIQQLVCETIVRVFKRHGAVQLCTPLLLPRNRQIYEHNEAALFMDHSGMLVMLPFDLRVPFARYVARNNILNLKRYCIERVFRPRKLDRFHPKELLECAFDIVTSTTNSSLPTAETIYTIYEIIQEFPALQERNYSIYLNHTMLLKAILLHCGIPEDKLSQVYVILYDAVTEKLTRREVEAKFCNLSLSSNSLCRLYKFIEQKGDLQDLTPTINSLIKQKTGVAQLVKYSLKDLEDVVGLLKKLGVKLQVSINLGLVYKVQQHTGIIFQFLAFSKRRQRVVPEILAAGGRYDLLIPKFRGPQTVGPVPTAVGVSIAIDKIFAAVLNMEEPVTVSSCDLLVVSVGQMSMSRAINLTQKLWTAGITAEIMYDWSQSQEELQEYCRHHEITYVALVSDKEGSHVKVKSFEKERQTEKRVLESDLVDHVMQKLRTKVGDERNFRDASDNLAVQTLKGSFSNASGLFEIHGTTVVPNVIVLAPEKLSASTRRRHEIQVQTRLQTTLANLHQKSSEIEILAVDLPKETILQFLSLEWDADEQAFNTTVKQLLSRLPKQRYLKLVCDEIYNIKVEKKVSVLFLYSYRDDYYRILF

IC50 (GCN2 [1]) [µM]	Molecule	also measured
> 1	Nc1ncc2cc(-c3c(F)ccc(NS(=O)(=O)c4cc(F)cc(C(F)(F)F)c4)c3F)ccc2n1 [Compound 123]	
> 1	Cc1cccc(S(=O)(=O)Nc2ccc(F)c(-c3ccc4nc(N)ncc4c3)c2F)c1 [Compound 125]	
> 1	Nc1ncc2c(-c3c(F)ccc(NS(=O)(=O)c4cc(Cl)ccc4Cl)c3F)cccc2n1 [Compound 111]	
0.01 to 0.1	COc1ncc(Cl)cc1S(=O)(=O)Nc1ccc(F)c(-c2ccc3nc(N4CCCCC4)ncc3c2)c1F [Compound 156]	
0.1 to 1	Nc1ncc2cc(-c3c(F)ccc(NS(=O)(=O)c4ccc5occc5c4)c3F)ccc2n1 [Compound 122]	
0.01 to 0.1	CNc1ncc2cc(-c3c(F)ccc(NS(=O)(=O)c4cc(Cl)cc(CO)c4Cl)c3F)ccc2n1 [Compound 162]	
> 1	Nc1ncc2cc(-c3c(F)ccc(NS(=O)(=O)c4cccc(F)c4)c3F)ccc2n1 [Compound 116]	
> 1	Nc1ncc2cc(-c3c(F)ccc(NS(=O)(=O)c4ccc(F)c(F)c4)c3F)ccc2n1 [Compound 132]	
> 1	Nc1ncc2cc(-c3c(F)ccc(NS(=O)(=O)c4cccc(F)c4F)c3F)ccc2n1 [Compound 124]	
< 0.01	O=S(=O)(Nc1ncc(F)c(-c2ccc3nc(NCCO)ncc3c2)c1F)c1cc(Cl)ccc1Cl [Compound 128]	
> 1	Nc1ncc2cc(-c3c(F)ccc(NS(=O)(=O)c4cccnc4)c3F)ccc2n1 [Compound 130]	
0.1 to 1	Nc1ncc2cc(-c3c(F)ccc(NS(=O)(=O)c4cc(C(F)(F)F)ccc4F)c3F)ccc2n1 [Compound 135]	
0.01 to 0.1	Nc1ncc2cc(-c3c(F)ccc(NS(=O)(=O)c4cc(C(F)(F)F)cc(C(F)(F)F)c4)c3F)ccc2n1 [Compound 144]	
0.01 to 0.1	Nc1ncc2cc(-c3c(F)ccc(NS(=O)(=O)c4ccc(Cl)cc4C(F)(F)F)c3F)ccc2n1 [Compound 137]	
> 1	Nc1ncc2cc(-c3c(F)ccc(NS(=O)(=O)c4cccc(C(F)(F)F)c4)c3F)ccc2n1 [Compound 145]	
> 1	COc1ccc(F)cc1S(=O)(=O)Nc1ccc(F)c(-c2ccc3nc(N)ncc3c2)c1F [Compound 110]	
0.1 to 1	Cc1ccc(S(=O)(=O)Nc2ccc(F)c(-c3ccc4nc(N)ncc4c3)c2F)cc1Cl [Compound 147]	
> 1	COc1ccc(OC)c(S(=O)(=O)Nc2ccc(F)c(-c3ccc4nc(N)ncc4c3)c2F)c1 [Compound 119]	

The next lines start with the molecule.

Molecule	IC50 (GCN2 [1]) [µM]	also measured
Nc1ncc2cc(-c3c(F)ccc(NS(=O)(=O)c4cc(Cl)cc(CO)c4Cl)c3F)ccc2n1 [Compound 108]	< 0.01	spheroid size and viability (HT29 cells): relative reduction in spheroid size and viability in a dose-dependent manner; GCN2 activation / GCN2-induced CHOP activation (CHOP (DDIT3) reporter; murine 3T3 CHOP (mCherry) reporter fibroblasts, increasing concentrations, in the presence of halofuginone or histidinol): reduced GCN2 activation; apoptosis induced by halofuginone (CHOP (DDIT3) reporter; murine 3T3 WT cells, co-treatment with halofuginone): effectively inhibited apoptosis; late-stage apoptosis induced by histidinol (CHOP (DDIT3) reporter; murine 3T3 WT cells, co-treatment with histidinol): increased late-stage apoptosis
COc1ncc(Cl)cc1C(=O)Nc1ccc(F)c(C#Cc2cnc(N)nc2)c1F [Compound 3]	> 1	IC50 (GCN2 [2]): > 1 µM
COc1ncc(Cl)cc1S(=O)(=O)Nc1ccc(F)c(-c2ccc(-c3cnc(N)nc3)nc2)c1F [Compound 4]	> 1	IC50 (GCN2 [2]): 0.1 to 1 µM
N[C@H](CO)Cc1c[nH]cn1 [histidinol, L-histidinol, reference compound]		induction of CHOP (mCherry) (CHOP (DDIT3) reporter): induction of CHOP (mCherry) could be observed in the WT cells, but not in the GCN2 knockout cells
tunicamycin [reference compound]		induction of CHOP (mCherry) (CHOP (DDIT3) reporter): significant induction of CHOP in both the WT and GCN2 knockout cell lines
COc1ncc(Cl)cc1S(=O)(=O)Nc1ccc(F)c(-c2ccc3nc(NC(=O)C(C)(C)C)ncc3c2)c1F [Compound 105]	0.01 to 0.1	
O=C(CC1NCCCC1O)Cn1cnc2cc(Br)c(Cl)cc2c1=O (stereo not drawn) [halofuginone, reference compound]		induction of CHOP (mCherry) (CHOP (DDIT3) reporter): induction of CHOP (mCherry) could be observed in the WT cells, but not in the GCN2 knockout cells
COc1ncc(Cl)cc1S(=O)(=O)Nc1ccc(F)c(-c2cccc3cnc(N)nc23)c1F [Compound 44]	> 1	
Nc1ncc2cc(-c3c(F)ccc(NS(=O)(=O)c4ccc(Cl)c(Cl)c4)c3F)ccc2n1 [Compound 9]	0.1 to 1	
O=S(=O)(Nc1ccc(F)c(-c2ccc3nc(N[C@H]4CC[C@H](O)CC4)ncc3c2)c1F)c1cc(Cl)ccc1Cl [Compound 67]	< 0.01	
Cc1cc(S(=O)(=O)Nc2ccc(F)c(-c3ccc4nc(N)ncc4c3)c2F)c(C)cc1Cl [Compound 109]	0.01 to 0.1	
COc1ncc(Cl)cc1S(=O)(=O)Nc1ccc(F)c(-c2ccc3cnc(N)nc3c2)c1F [Compound 6]	> 1	IC50 (GCN2 [2]): > 1 µM
Nc1ncc2ccc(-c3c(F)ccc(NS(=O)(=O)c4cc(Cl)ccc4Cl)c3F)cc2n1 [Compound 5]	> 1	IC50 (GCN2 [2]): > 1 µM
Cc1ccc(NS(=O)(=O)c2cc(Cl)ccc2Cl)cc1-c1ccc2nc(N)ncc2c1 [Compound 16]	0.1 to 1	
COc1ncc(Cl)cc1-c1nnc(-c2ccc(F)c(C#Cc3cnc(N)nc3)c2F)o1 [Compound 7]	> 1	IC50 (GCN2 [2]): > 1 µM
